# According to patent US5521160A, “Sulfuric acid esters of sugar alcohols” (Hoffmann-La Roche Inc., priority 1994, dated 1996):
# Counter-ions that a name gives are not always drawn. Like-named read-outs stand apart in the source and are kept apart here.
# What was measured:
# thrombin = biological target: T1, thrombin (Homo sapiens, UniProt P00734); assay: biochemical; assay type: biochemical; conditions: read-out: Anticoagulative Activity IC50 Thrombin
# T1 construct: purchased Roche, Basle (Thrombin Reagent)
# Description: (§1) The blood coagulation-inhibiting activity was determined as follows:
# Inhibition of Thrombin or Factor Xa in the Chromogenic Substrate Assay (Teien. et al., Thrombosis Research 10, 399-410 (1977)): The determination was effected in a Cobas-Bio centrifugal automatic spectrophotometer. The buffer solution used consisted of 50 mM Tris buffer, 180 mM NaCl, 7.5 mM EDTA Na2, 1% PEG 6000 and 0.02% Tween 80, pH 8.4. The test solution consisted of 50 μl of buffer, 30 μl of antithrombin III (1 U/ml, Kabi Diagnostica) and 20 μl of plasma which contained various concentrations of test compounds. 30 μl of sample solution and 20 μl of water with 180 μl of thrombin (1 U/ml, Thrombin Reagent Roche Basle) were added to the test cuvette in the automatic analyzer. After incubation at 37° C. for 240 seconds, 60 μl of S-2238 (H-D-Phe-Pip-Arg-NH.pNA, Kabi Diagnostica, Mondal, Sweden, 0.75 mM in water) and 20 μl of water were added. The liberation of pNA (p-nitroaniline) was followed during 60 seconds at 405 nm in 10 second intervals in comparison to water as the blank.
# rat smooth muscle cells = assay: Antiproliferative activity (growth inhibition of rat smooth muscle cells, relative to heparin); assay type: cell-based; conditions: 100 μg/ml, 48 hours, relative to heparin 100 μg/ml in same experiment
# Description: The antiproliferative activity of a substance is expressed as the ri value which is a comparative value to the corresponding activity of heparin and which was determined in cell cultures as follows: rat smooth muscle cells were applied to cell culture plates in a density of 8×10^3 cells/well (medium: DMEM with 10% FCS. Cultivation at 37° C. and 5% CO2). After 4 hours the number of adhered cells was determined and the compounds to be tested (100 μg/ml, dissolved in H2 O) were added. The controls were a) cells to which test compound was not added and b) heparin (100 μg/ml). Subsequently, the cells were incubated for 48 hours and thereafter the cell count was determined once more.
# The inhibition i of the cell growth, i.e. the percent reduction in the growth rate of the cells compared to the control, was calculated from these values: [formula] the growth rate μ being calculated as [formula] in which Z is the number of cells.
# Finally, ri --the relative inhibitory activity--which expresses the activity of a substance (at 100 μg/ml) in comparison to the activity of heparin in the same concentration in the same experiment, was calculated: [formula]
# Factor Xa = biological target: T2, Factor Xa (Bos taurus, UniProt P00743); assay: Inhibition of Factor Xa in the chromogenic substrate assay (blood coagulation inhibition); assay type: biochemical; conditions: chromogenic substrate S-2222, antithrombin III, plasma; read-out: Anticoagulative Activity IC50 Factor Xa
# T2 sequence (P00743 41-180 limits assumed): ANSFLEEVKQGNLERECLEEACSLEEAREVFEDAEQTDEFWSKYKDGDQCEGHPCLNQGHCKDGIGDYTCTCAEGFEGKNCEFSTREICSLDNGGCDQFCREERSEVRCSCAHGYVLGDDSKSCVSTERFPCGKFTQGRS
# Description: as §1
# Inhibition of Thrombin or Factor Xa in the Chromogenic Substrate Assay (Teien. et al., Thrombosis Research 10, 399-410 (1977)): The determination was effected in a Cobas-Bio centrifugal automatic spectrophotometer. The buffer solution used consisted of 50 mM Tris buffer, 180 mM NaCl, 7.5 mM EDTA Na2, 1% PEG 6000 and 0.02% Tween 80, pH 8.4. The test solution consisted of 50 μl of buffer, 30 μl of antithrombin III (1 U/ml, Kabi Diagnostica) and 20 μl of plasma which contained various concentrations of test compounds.
# The inhibition of Factor Xa was measured in the same manner using a solution of Factor Xa (2.8 nkat/ml) and 2 mM S-2222 (Bz-CO-Ile-Glu-Arg-NH.pNA, Kabi Diagnostica) in water in place of thrombin or S-2238.
# [1] = chromogenic substrate S-2238, antithrombin III, plasma, pH 8.4, 37° C.
SMILES,IC50 (thrombin; pH 8.4) [µM],IC50 (Factor Xa) [µM],IC50 (thrombin; [1]) [µM],Antiproliferative Activity ri (relative inhibitory activity compared with heparin) (rat smooth muscle cells)
"CC(/C=C/C=C(\C)C(=O)NC[C@H](OS(=O)(=O)O)[C@@H](OS(=O)(=O)O)[C@H](OS(=O)(=O)O)[C@@H](COS(=O)(=O)O)OS(=O)(=O)O)=C\C=C\C=C(C)\C=C\C=C(/C)C(=O)NC[C@H](OS(=O)(=O)O)[C@@H](OS(=O)(=O)O)[C@H](OS(=O)(=O)O)[C@@H](COS(=O)(=O)O)OS(=O)(=O)O [Example 6, (2E,4E,6E,8E,10E,12E,14E)-2,6,11,15-tetramethyl-hexadeca-2,4,6,8,10,12,14-heptaenedicarboxylic acid bis-(2,3,4,5,6-penta-O-sulfo-D-glucit-1-ylamide) decasodium salt]",,> 687,> 687,1.5
"O=S(=O)(O)OC[C@@H](OS(=O)(=O)O)[C@@H](OS(=O)(=O)O)[C@H](OS(=O)(=O)O)[C@H](CNS(=O)(=O)c1cccc2c(S(=O)(=O)NC[C@H](OS(=O)(=O)O)[C@@H](OS(=O)(=O)O)[C@H](OS(=O)(=O)O)[C@@H](COS(=O)(=O)O)OS(=O)(=O)O)cccc12)OS(=O)(=O)O [Example 11, naphthalene-1,5-disulfonic acid bis-(2,3,4,5,6-penta-O-sulfo-D-glucit-1-ylamide) decasodium salt]",,> 707,> 707,1.0
"O=C(Nc1ccc(OC[C@@H](OS(=O)(=O)O)[C@H](OS(=O)(=O)O)[C@@H](COS(=O)(=O)O)OS(=O)(=O)O)cc1)c1cccc(C(=O)Nc2ccc(OC[C@@H](OS(=O)(=O)O)[C@H](OS(=O)(=O)O)[C@@H](COS(=O)(=O)O)OS(=O)(=O)O)cc2)c1 [Example 12, N,N'-bis-[4-(2,3,4,5-tetra-O-sulfo-D-arabinit-1-yloxy)-phenyl]-isophthalamide octasodium salt]",,> 795,> 795,0.9
"O=C(NC[C@H](OS(=O)(=O)O)[C@@H](OS(=O)(=O)O)[C@H](OS(=O)(=O)O)[C@@H](COS(=O)(=O)O)OS(=O)(=O)O)c1cccc(C(=O)NC[C@H](OS(=O)(=O)O)[C@@H](OS(=O)(=O)O)[C@H](OS(=O)(=O)O)[C@@H](COS(=O)(=O)O)OS(=O)(=O)O)c1 [Example 14, N,N'-bis-(2,3,4,5,6-penta-O-sulfo-D-glucit-1-yl)-isophthalamide decasodium salt]",,> 773,> 773,0.6
"CN(C[C@H](OS(=O)(=O)O)[C@@H](OS(=O)(=O)O)[C@H](OS(=O)(=O)O)[C@@H](COS(=O)(=O)O)OS(=O)(=O)O)C(=O)c1ccc2c(c1)C(=O)c1cc(C(=O)N(C)C[C@H](OS(=O)(=O)O)[C@@H](OS(=O)(=O)O)[C@H](OS(=O)(=O)O)[C@@H](COS(=O)(=O)O)OS(=O)(=O)O)ccc1-2 [Example 37, 9-oxo-9H-fluorene-2,7-dicarboxylic acid bis-[methyl-(2,3,4,5,6-penta-O-sulfo-D-glucit-1yl)-amide] decasodium salt]",,> 703,> 703,0.7
"O=C(/C=C\C(=O)Nc1cc(COc2ccc(-c3ccccc3)cc2)cc(NC(=O)/C=C\C(=O)NC[C@H](OS(=O)(=O)O)[C@@H](OS(=O)(=O)O)[C@H](OS(=O)(=O)O)[C@@H](COS(=O)(=O)O)OS(=O)(=O)O)c1)NC[C@H](OS(=O)(=O)O)[C@@H](OS(=O)(=O)O)[C@H](OS(=O)(=O)O)[C@@H](COS(=O)(=O)O)OS(=O)(=O)O [Example 58, (Z)-butenedioic acid (Z)-[3-biphenyl-4-yloxymethyl-5-[3-(2,3,4,5,6-penta-O-sulfo-D-glucit-1-ylcarbamoyl)-acryloylamino]-phenylamide]-(2,3,4,5,6-penta-O-sulfo-D-glucit-1-yl)-amide decasodium salt]",,> 620,> 620,2.2
"O=C(Nc1ccc(OC[C@@H](OS(=O)(=O)O)[C@H](OS(=O)(=O)O)[C@H](OS(=O)(=O)O)[C@H](COS(=O)(=O)O)OS(=O)(=O)O)cc1)Nc1ccc(OC[C@@H](OS(=O)(=O)O)[C@H](OS(=O)(=O)O)[C@H](OS(=O)(=O)O)[C@H](COS(=O)(=O)O)OS(=O)(=O)O)cc1 [Example 65, 1,3-bis-[4-(2,3,4,5,6-penta-O-sulfo-D-galactit-6-yloxy)-phenyl]-urea decasodium salt]",,> 728,> 728,0.8

# Continued, in another order:
IC50 (thrombin; pH 8.4) [µM],IC50 (Factor Xa) [µM],IC50 (thrombin; [1]) [µM],SMILES,Antiproliferative Activity ri (relative inhibitory activity compared with heparin) (rat smooth muscle cells)
> 745,> 745,,"O=C(NC[C@H](OS(=O)(=O)O)[C@@H](OS(=O)(=O)O)[C@H](OS(=O)(=O)O)[C@@H](COS(=O)(=O)O)OS(=O)(=O)O)c1ccc2cc(C(=O)NC[C@H](OS(=O)(=O)O)[C@@H](OS(=O)(=O)O)[C@H](OS(=O)(=O)O)[C@@H](COS(=O)(=O)O)OS(=O)(=O)O)ccc2c1 [Example 1, naphthalene-2,6-dicarboxylic acid bis-(2,3,4,5,6-penta-O-sulfo-D-glucit-1-ylamide) decasodium salt]",0.6
,> 717,> 717,"O=C(NC[C@H](OS(=O)(=O)O)[C@@H](OS(=O)(=O)O)[C@H](OS(=O)(=O)O)[C@@H](COS(=O)(=O)O)OS(=O)(=O)O)c1ccc(/C=C\c2ccc(C(=O)NC[C@H](OS(=O)(=O)O)[C@@H](OS(=O)(=O)O)[C@H](OS(=O)(=O)O)[C@@H](COS(=O)(=O)O)OS(=O)(=O)O)cc2)cc1 [Example 3, (Z)-stilbene-4,4'-dicarboxylic acid bis-(2,3,4,5,6-penta-O-sulfo-D-glucit-1-ylamide) decasodium salt]",1.5
,> 698,> 698,"O=C(NC[C@H](OS(=O)(=O)O)[C@@H](OS(=O)(=O)O)[C@H](OS(=O)(=O)O)[C@@H](COS(=O)(=O)O)OS(=O)(=O)O)c1ccc(S(=O)(=O)c2ccc(C(=O)NC[C@H](OS(=O)(=O)O)[C@@H](OS(=O)(=O)O)[C@H](OS(=O)(=O)O)[C@@H](COS(=O)(=O)O)OS(=O)(=O)O)cc2)cc1 [Example 4, 4,4'-sulfonyl-dibenzoic acid bis-(2,3,4,5,6-penta-O-sulfo-D-glucit-1-ylamide) decasodium salt]",0.3
,> 716,> 716,"O=C(NC[C@H](OS(=O)(=O)O)[C@@H](OS(=O)(=O)O)[C@H](OS(=O)(=O)O)[C@@H](COS(=O)(=O)O)OS(=O)(=O)O)c1ccc(CCc2ccc(C(=O)NC[C@H](OS(=O)(=O)O)[C@@H](OS(=O)(=O)O)[C@H](OS(=O)(=O)O)[C@@H](COS(=O)(=O)O)OS(=O)(=O)O)cc2)cc1 [Example 10, 4,4'-ethylene-dibenzoic acid bis-(2,3,4,5,6-penta-O-sulfo-D-glucit-1-ylamide) decasodium salt]",1.5
,> 723,> 723,"O=C(NC[C@H](OS(=O)(=O)O)[C@@H](OS(=O)(=O)O)[C@H](OS(=O)(=O)O)[C@@H](COS(=O)(=O)O)OS(=O)(=O)O)c1ccc(Cc2ccc(C(=O)NC[C@H](OS(=O)(=O)O)[C@@H](OS(=O)(=O)O)[C@H](OS(=O)(=O)O)[C@@H](COS(=O)(=O)O)OS(=O)(=O)O)cc2)cc1 [Example 16, 4,4'-methylene-dibenzoic acid bis-(2,3,4,5,6-penta-O-sulfo-D-glucit-1-ylamide) decasodium salt]",0.7
,> 748,> 748,"Cc1c(NC(=O)NC[C@H](OS(=O)(=O)O)[C@@H](OS(=O)(=O)O)[C@H](OS(=O)(=O)O)[C@@H](COS(=O)(=O)O)OS(=O)(=O)O)cccc1NC(=O)NC[C@H](OS(=O)(=O)O)[C@@H](OS(=O)(=O)O)[C@H](OS(=O)(=O)O)[C@@H](COS(=O)(=O)O)OS(=O)(=O)O [Example 26, 3,3'-bis-(2,3,4,5,6-penta-O-sulfo-D-glucit-1-yl)-1,1'-(toluene-2,6-diyl)-diurea decasodium salt]",1.5
> 640,> 640,,"O=C(NC[C@H](OS(=O)(=O)O)[C@@H](OS(=O)(=O)O)[C@H](OS(=O)(=O)O)[C@@H](COS(=O)(=O)O)OS(=O)(=O)O)Nc1ccc(NC(=O)c2ccc(C(=O)Nc3ccc(NC(=O)NC[C@H](OS(=O)(=O)O)[C@@H](OS(=O)(=O)O)[C@H](OS(=O)(=O)O)[C@@H](COS(=O)(=O)O)OS(=O)(=O)O)cc3)cc2)cc1 [Example 33, N,N'-bis-[4-[3-(2,3,4,5,6-penta-O-sulfo-D-glucit-1-yl)-ureido]-phenyl]-terephthalamide decasodium salt]",0.8
> 662,> 662,,"O=C(/C=C/C(=O)Nc1ccc(NC(=O)NC[C@H](OS(=O)(=O)O)[C@@H](OS(=O)(=O)O)[C@H](OS(=O)(=O)O)[C@@H](COS(=O)(=O)O)OS(=O)(=O)O)cc1)Nc1ccc(NC(=O)NC[C@H](OS(=O)(=O)O)[C@@H](OS(=O)(=O)O)[C@H](OS(=O)(=O)O)[C@@H](COS(=O)(=O)O)OS(=O)(=O)O)cc1 [Example 34, N,N'-bis-[4-[3-(2,3,4,5,6-penta-O-sulfo-D-glucit-1-yl)-ureido]-phenyl]-fumaramide decasodium salt]",0.4
